The target of one experiment is T1, human DNA polymerase α (Homo sapiens, UniProt P09884).
T1 sequence (P09884 1-1462): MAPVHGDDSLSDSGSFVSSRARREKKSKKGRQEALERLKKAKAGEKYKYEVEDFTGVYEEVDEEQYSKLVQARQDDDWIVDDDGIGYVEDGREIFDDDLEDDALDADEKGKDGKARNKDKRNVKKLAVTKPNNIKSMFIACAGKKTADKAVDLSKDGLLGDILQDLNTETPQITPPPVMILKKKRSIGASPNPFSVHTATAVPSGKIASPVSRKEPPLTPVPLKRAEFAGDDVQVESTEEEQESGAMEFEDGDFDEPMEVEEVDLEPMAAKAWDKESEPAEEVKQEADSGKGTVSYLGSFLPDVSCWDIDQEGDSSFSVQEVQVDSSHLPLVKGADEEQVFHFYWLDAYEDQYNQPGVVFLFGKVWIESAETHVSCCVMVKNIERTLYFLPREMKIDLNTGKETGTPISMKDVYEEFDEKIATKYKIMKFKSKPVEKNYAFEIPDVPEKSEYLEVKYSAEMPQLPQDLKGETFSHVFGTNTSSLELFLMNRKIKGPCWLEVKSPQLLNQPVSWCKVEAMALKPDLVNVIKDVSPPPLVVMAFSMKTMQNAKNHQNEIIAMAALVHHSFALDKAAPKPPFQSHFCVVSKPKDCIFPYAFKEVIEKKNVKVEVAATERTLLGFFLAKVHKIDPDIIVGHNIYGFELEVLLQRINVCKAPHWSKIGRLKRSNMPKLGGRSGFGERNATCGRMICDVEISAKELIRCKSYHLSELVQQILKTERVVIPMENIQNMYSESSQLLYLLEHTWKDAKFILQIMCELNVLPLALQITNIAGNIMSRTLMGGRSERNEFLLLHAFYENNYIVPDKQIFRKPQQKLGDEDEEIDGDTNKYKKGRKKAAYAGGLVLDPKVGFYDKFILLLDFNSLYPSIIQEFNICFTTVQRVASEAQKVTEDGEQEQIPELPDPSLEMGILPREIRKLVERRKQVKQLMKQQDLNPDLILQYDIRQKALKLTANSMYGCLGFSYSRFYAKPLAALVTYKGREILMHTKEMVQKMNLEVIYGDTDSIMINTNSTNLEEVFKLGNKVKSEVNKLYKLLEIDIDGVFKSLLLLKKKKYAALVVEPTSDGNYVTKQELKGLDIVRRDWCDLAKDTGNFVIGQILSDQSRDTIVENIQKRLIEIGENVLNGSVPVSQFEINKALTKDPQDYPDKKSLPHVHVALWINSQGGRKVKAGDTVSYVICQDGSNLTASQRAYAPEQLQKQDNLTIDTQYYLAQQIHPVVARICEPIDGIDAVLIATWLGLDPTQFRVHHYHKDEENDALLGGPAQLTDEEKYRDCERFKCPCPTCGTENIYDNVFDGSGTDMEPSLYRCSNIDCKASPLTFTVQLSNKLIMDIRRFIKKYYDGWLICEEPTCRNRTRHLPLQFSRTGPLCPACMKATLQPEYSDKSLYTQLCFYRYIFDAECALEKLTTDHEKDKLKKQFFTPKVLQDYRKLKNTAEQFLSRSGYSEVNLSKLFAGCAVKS
Briefly: Human DNA polymerase α inhibition assay. The experiment is classed as biochemical. The following applies: top concentration 200 µM. How it is done: The activities of human DNA polymerases α, β, and γ were measured in radiolabeled nucleotide incorporation assays. TP was prepared as a 10-point titration with 3-fold serial dilution in water. Reaction buffers for the DNA polymerase α and β assays both contained 20 mM Tris pH 7.5, 10 mM MgCl2, 50 μM EDTA, 200 μg/mL bovine serum albumin (BSA), 2 mM dithiothreitol (DTT), 1.6 μM each of dNTP (dATP, dCTP, dGTP, and dTTP), 20 μCi/mL [α33P]dATP, 0.1 mg/mL gapped activated fish sperm DNA template, test compound, and 0.005 U/μL DNA polymerase α or 0.0025 U/μL DNA polymerase β. The reaction buffer for DNA polymerase γ contained 20 mM Tris pH 8, 10 mM MgCl2, 50 mM KCl, 100 μg/mL BSA, 2 mM β-mercaptoethanol, 10 μM of each dNTP (dATP, dCTP, dGTP, and dTTP), 20 μCi/mL [α33P]dATP, 0.04 mg/mL gapped activated fish sperm DNA template, test compound, and 0.0003 μg/μL DNA polymerase γ. The 50-μL reactions were incubated at room temperature for 30 min (for β and γ) or 90 min (for α) before terminating with the addition of 50 μL 500 mM EDTA. The reaction mixtures were transferred to a Millipore DE81 filter plate (EMD Millipore; Hayward, CA), washed with 0.5 M sodium phosphate pH 7.0, and dried. After addition of 40 μL scintillant to each well, the incorporation of labeled dATP was determined with a microplate counter (TopCount NXT HTS; PerkinElmer, Shelton, CA, USA).

The next experiment concerns the target T2, HIV RT (Human immunodeficiency virus type 1 group M subtype B, UniProt P04585).
T2 construct: HIV RT (final concentration, 1,200 nM)
The experiment can be described thus: Iron footprinting assay of RT translocation state. The experiment is classed as biochemical. How it is done:
The translocation state of RT was assessed with a site-specific iron footprinting assay adapted from previous work. Primer and template used for this assay are described in Fig 7A. The presence of Fe^2+ ions in the reaction generated hydroxyl radicals that cleaved the DNA template in a site-specific manner at the nucleotide closest to the RNase H active site. In addition to an RT inhibitor in the reaction, dTTP, the subsequent dNTP, was provided in dose titration to force the translocation of the 3′-primer terminus from the pre-translocation N-site to the post-translocation P-site.
(final concentration, 1 µM), or ddATP (final concentration, 5 µM), Td43/Pd30 pre-annealed primer and template (final concentration, 200 nM based on Cy3-labeled Td43 concentration), and dTTP titrated at various concentrations. All reagent stocks were in a base assay buffer consisting of 120 mM Tris pH 7.5, 20 mM NaCl, and 6 mM MgCl2 in nuclease-free water. […] The reaction was then heated to 37 °C for 5 min before quenching 1:1 with gel-loading dye followed by heating at 95 °C for 10 min. Samples were stored at −20 °C until being resolved by polyacrylamide gel electrophoresis with 7 M urea.

By IC50 is commonly meant the concentration that gives 50% inhibition. A low value points to greater potency in that assay. On to `C#C[C@]1(COP(=O)(O)OP(=O)(O)OP(=O)(O)O)O[C@@H](n2ccc3c(N)nc(Cl)nc32)C[C@@H]1O` [MK-8527-TP], for which, on human DNA polymerase α, inhibition was half-maximal at 95 µM (IC50). Moreover, the “Translocation state of RT” value on HIV RT (1 µM MK-8527-TP or ISL-TP, 5 µM ddATP, absence or presence of dTTP) was “remained in a pre-translocation (−18) state”. The “dTTP concentration above which post-translocation state products (−17) began accumulating” value on HIV RT (1 µM inhibitor) is over 6.2 µM.
